Laboratory results published in paper PMC8249445, “Complex effects of macrolide venturicidins on bacterial F-ATPases likely contribute to their action as antibiotic adjuvants” (Scientific Reports, 2021).
Like-named read-outs stand apart in the source and are kept apart here.

Assays:
[1] = system: FOF1 from M. smegmatis (MsFOF1); design: method as in PMID 33299175; conditions: cited from earlier work
[2] = molecular target: T1, FOF1-ATPase of WT E. coli membranes (Escherichia coli, UniProt P68699); experiment: biochemical; assay type: biochemical; conditions: for ATPase activity during the last 3 min of assays: 0.1 mM DCCD alone (trace 1); for Ki: read-out: Ki (early inhibition)
T1 construct: To express haploid levels of EcFOF1 containing WT-ε or ε88-stop; expressed in transfected cells; host or cells: E. coli strain XH1 (chromosomal atpC deletion) carrying pMBε1; inverted membrane vesicles
Procedure: ATP hydrolysis is enzyme-coupled to conversion of NADH to NAD^+, which results in decreased light absorbance; thus, a larger rate of ATP hydrolysis is indicated by a steeper downward slope. The system also rapidly regenerates ATP, minimizing the concentration of product ADP during the assay. Unless noted, assays were preincubated to establish a steady state hydrolysis rate (see “Methods”) before the ‘zero’ point of measurements.
(§1) Plasmid pXH302S, which encodes the WT atpC gene and expresses near haploid levels of the ε subunit, was subjected to fusion PCR mutagenesis to construct plasmid pMBε1, with an N-terminal affinity tag ([…]) added prior to the initial Met residue. To express the ε88-stop subunit, an AfeI-ScaI restriction fragment of WT pMBε1 was replaced by the analogous fragment from pH6ε88-stop[46]. To express haploid levels of EcFOF1 containing WT-ε or ε88-stop, the appropriate version of pMBε1 was transformed into E. coli strain XH1, which has a chromosomal deletion of the atpC gene for ε[54]. For these transformed strains, cultures were grown and inverted membrane vesicles (IMV) were prepared according to [55]. WT ε, with the same N-terminal His6-tag, was over-expressed from pH6ε and purified as described.
ATP hydrolysis by membrane vesicles was assayed spectrophotometrically[57] at 30 °C using an open-chamber, diode array spectrophotometer (Hewlett Packard 8453 UV–Vis) as described in[29]. The assay medium (1 ml per assay) contained 20 mM Mops/Tris, pH 8.0, 0.2 mM EDTA, 10 mM CH3COOK, 1 mM ATP, 3.2 mM Mg(CH3COO)2, 1 mM phosphoenolpyruvate, at least 0.3 mM NADH, 0.1 mg/ml pyruvate kinase, 0.1 mg/ml lactate dehydrogenase, 5 mM KCN, and 5 μM carbonyl cyanide 4-(trifluoromethoxy)-phenylhydrazone. […] To avoid interference of this increase with the changes of ATPase activity induced by venturicidins, unless indicated otherwise, measurement of ATPase activities were started 60 min after addition of membranes to the complete assay medium. […] To keep absorbance between 1.5 and 2 units after the 60-min preincubation, up to 0.2 mM additional NADH was added to the assay medium. In figures displaying activity traces, some traces are shifted vertically for visual clarity.

[3] = molecular target: T2, PaFOF1 in membranes from P. aeruginosa strain PAO1 (Pseudomonas aeruginosa, UniProt Q9HT15); experiment: ATP hydrolysis by P. aeruginosa PAO1 membranes, enzyme-coupled spectrophotometric assay; assay type: biochemical
T2 construct: endogenous in cells; host or cells: P. aeruginosa strain PAO1, inverted membrane vesicles
Procedure: P. aeruginosa strain PAO1 was grown in LB medium at 37 °C as described. For preparation of IMV, final cultures used 1 L of LB per 2L baffled flask and were inoculated from an overnight culture at an initial OD600 ~ 0.025. Cultures were shaken at 250 rpm and monitored until they reached mid- to late-logarithmic growth phase (OD600, 1–1.4). Cultures were chilled and subsequent steps for cell lysis and isolation of IMV were done at 4 °C. Cells were sedimented by centrifugation (3,700 × g, 30 min). Cells from 1 to 2 L of culture (~ 2–3 g wet cells/L) were resuspended in 25–40 ml of STEM buffer (TEM buffer plus sucrose[55]), transferred to a 50 ml Oak Ridge tube, sedimented again (11,617 × g, 10 min), resuspended in 20–40 ml of STEM and frozen at -80 °C. Thawed cells were lysed by two sequential passages through an SLM-Aminco French pressure cell at ~ 16,000 psi, essentially as described for E. coli[55]; the pressure cell was enclosed in a clear biohazard bag (MiniGrip, IP2024B3T) during use to contain any aerosols formed. Unlysed cells and cell wall debris were removed by centrifugation (50 ml Oak Ridge tubes, 16,743 × g, 25 min): the supernate was diluted with MTGM7.5 buffer (50 mM MOPS-TRIS, 10%(v/v) glycerol, 5 mM Mg(CH3COO)2, pH 7.5) and centrifugation was repeated at least twice, recovering the supernate each time. The final supernatant lysate was stored at -80 °C. To isolate IMV, the cleared lysate was thawed quickly and diluted with MTGM7.5 as needed to fill 1 or 2 polycarbonate tubes for use in a Beckman Ti70 rotor. The IMV (membranes) were sedimented by ultracentrifugation (250,000 × g max) for 1 h, the membranes were resuspended in MTGM7.5 buffer to fill one Ti70 tube and ultracentrifugation was repeated for 45 min. The membranes were resuspended in a small volume of MTGM7.5 buffer (typically ≥ 10 mg membrane protein/ml) and homogenized manually (Potter–Elvehjem type). Small aliquots of the final membrane sample were quick-frozen in liquid nitrogen and stored at − 80 °C.
(§2) ATP hydrolysis by membrane vesicles was assayed spectrophotometrically[57] at 30 °C using an open-chamber, diode array spectrophotometer (Hewlett Packard 8453 UV–Vis) as described in[29]. The assay medium (1 ml per assay) contained 20 mM Mops/Tris, pH 8.0, 0.2 mM EDTA, 10 mM CH3COOK, 1 mM ATP, 3.2 mM Mg(CH3COO)2, 1 mM phosphoenolpyruvate, at least 0.3 mM NADH, 0.1 mg/ml pyruvate kinase, 0.1 mg/ml lactate dehydrogenase, 5 mM KCN, and 5 μM carbonyl cyanide 4-(trifluoromethoxy)-phenylhydrazone. As noted before, the rate of ATP hydrolysis by membranes increases to a small degree during assays. This is due, at least in part, to dissociation of a small fraction of EcF1 and/or ε from the membranes, since the increase is inhibited by added ε (e.g., Fig. 5). To avoid interference of this increase with the changes of ATPase activity induced by venturicidins, unless indicated otherwise, measurement of ATPase activities were started 60 min after addition of membranes to the complete assay medium. This minimizes further increases in ATPase rate during control assays to < 15%. To keep absorbance between 1.5 and 2 units after the 60-min preincubation, up to 0.2 mM additional NADH was added to the assay medium. In figures displaying activity traces, some traces are shifted vertically for visual clarity.

[4] = system: mitoFOF1; design: method as in PMID 124668; conditions: cited from earlier work
[5] = molecular target: T3, E. coli membranes with FOF1 lacking the ε subunit's CTD (ε88-stop) (Escherichia coli, UniProt P68699); experiment: ATP hydrolysis by ε88-stop E. coli membranes, enzyme-coupled spectrophotometric assay; assay type: biochemical
T3 construct: To express haploid levels of EcFOF1 containing WT-ε or ε88-stop; expressed in transfected cells; host or cells: E. coli strain XH1 (chromosomal atpC deletion) carrying the ε88-stop version of pMBε1; inverted membrane vesicles
Source text: We next investigated whether the ε-inhibited state of EcFOF1 also impacts interactions of ventA with the enzyme. The N-terminal domain (NTD) of ε is required for FOF1 assembly and functional coupling of F1 to FO in eukaryotic and bacterial species; the C-terminal domain (CTD) of ε can auto-inhibit FOF1 and isolated F1 from some bacteria and from chloroplasts, but the mitochondrial homolog (δ) is not inhibitory[39],[40]. Thus we measured the effects of ventA on ATPase activity of E. coli membranes expressing ε88-stop, which lacks the autoinhibitory εCTD (Fig. 3). From Table 1 (100% ATPase values), it is clear that selenite activates membrane ATPase more (fourfold) for ε88-stop than for WT (2.8-fold). This is because, without the inhibitory εCTD, more enzyme complexes shift to the MgADP-inhibited state, which can be activated by selenite. […] In contrast, early inhibition of ATPase by ventA has similar Ki values for WT and ε88-stop membranes in the absence (0.7 vs 0.5 μM) or in the presence of selenite (0.23 vs 0.09 μM).
as §1, §2

[6] = system: S. aureus; design: method as in PMID 28874470; conditions: cited from earlier work
[7] = system: E. coli membrane ATPase; conditions: read-out: half-maximal inhibitory concentration of venturicidin; obtained from earlier data; more divergent assay conditions; cited from earlier work
[8] = system: P. aeruginosa; design: method as in PMID 6406266; conditions: cited from earlier work
[9] = molecular target: F1; design: method as in PMID 23400782; conditions: read-out: KD of ε dissociation from F1; cited from earlier work
[10] = WT, 38.5 mM selenite (Fig. S1 panel B)

## COc1nc2ccc(Br)cc2cc1[C@@H](c1ccccc1)[C@@](O)(CCN(C)C)c1cccc2ccccc12 [BDQ, bedaquiline]
[1]; micromolar BDQ
  Effect of micromolar BDQ on ATPase activity: most activity was restored
[1]; nanomolar BDQ
  Inhibition of ATPase: ~ 80%

## C(=NC1CCCCC1)=NC1CCCCC1 [DCCD, N,N′-dicyclohexylcarbodiimide]
[2]; 38.5 mM selenite
  ATPase activity during the last 3 min of assays: 0.85 U/mg
[2]; no selenite
  ATPase activity during the last 3 min of assays: 0.20 (± 0.02) U/mg
[2]; read-out: Inhibition of ATPase activity
  inhibition at 100 µM: 73%

## [N-]=[N+]=[N-] [azide]
[2]; 6 µM azide in the assay
  Inhibition of ATPase activity: ~ 50%
[2]; WT + 6 μM azide
  100% ATPase (specific activity just before addition of ventA): 0.42 (± 0.02) U/mg
[3]; excess azide
  Inhibition of ATPase activity: 80–90%

## CC[C@H]1/C=C/C=C/C[C@@H](C)[C@H](O)[C@@](C)(O)C(=O)[C@@H](C)[C@H](O)[C@@H](C)C(=O)[C@@H](C)[C@H](O)[C@@H](C)/C=C/C(=O)O[C@@H]2[C@H](C)[C@H](CC1)O[C@]1(CC[C@H](C)[C@H](C[C@@H](C)O)O1)[C@H]2C [oligomycin]
[4]
  Effect on ATPase activity of membrane and detergent-solubilized mitoFOF1: inhibited ATPase activity of both forms

## O=[Se](O)O [selenite]
[5]; selenite, ε88-stop membranes
  Activation of membrane ATPase: fourfold
[5]; ε88stop + 38.5 mM selenite
  100% ATPase (specific activity just before addition of ventA): 3.4 (± 0.5) U/mg
[2]; WT + 38.5 mM selenite
  100% ATPase (specific activity just before addition of ventA): 2.3 (± 0.2) U/mg
[2]; optimal selenite (38.5 mM), WT membranes
  Stimulation of ATPase activity: 2.8 fold
[3]; selenite
  Activation of membrane ATPase: ~ fourfold

## CCC(=O)C(C)C(O)C(C)CC(C)C1OC(=O)CC2(O)CC=C(C)C(O2)C(C)=CCCCC(OC2CC(O)C(O)C(C)O2)C=CC(C)CC1C (stereo not shown) [ventB, venturicidin B]
[2]; WT
  Reduction of Ki by selenite: 2.3 fold
[2]; [10]
  y0 (ATPase at saturating venturicidin): 28% (±7)
  y1 (venturicidin-sensitive ATPase, best fit of early rates): 73% (±6)
  Ki: 4 µM
[2]; WT, absence of selenite (Fig. S1 panel A), y0 fixed as 0
  y1 (venturicidin-sensitive ATPase, best fit of early rates): 136% (±7)
[2]; WT, with or without selenite
  Ki for inhibition of early rate relative to respective Ki of ventA: ≥ tenfold
[2]; WT, absence of selenite (Fig. S1 panel A)
  Ki: 9 µM

## Oligomycin A
[6]
  Adjuvant activity for polymyxin B: potent adjuvant

## venturicidin
[7]
  IC50: ~7 µM
[8]; anaerobic fermentation of L-arginine
  Decrease of cellular ATP: ~ tenfold
[8]; anaerobic
  Time to eliminate Δψ and flagellar motility: ≤ 3.5 min
[8]; during respiration
  Reduction of cellular ATP: ~ fivefold

## ε: purified WT ε subunit of E. coli FOF1 with N-terminal His6-tag, added exogenously
[9]
  Kd: < 0.001 µM
[2]; 67 nM ε added after 9.5 μM ventA, 38.5 mM selenite (Fig. 5A #4)
  Late rate (last 3 min of assay): 0.28 U/mg
[2]; 67 nM ε, 38.5 mM selenite (Fig. 5A #2)
  Late rate (last 3 min of assay): 1.4 U/mg
[2]; excess ε (67 nM), without ventA, selenite present
  Immediate inhibition of ATPase activity: ~ 30%
[2]; excess ε added after 9.5 μM ventA, selenite present (Fig. 5A trace 4)
  Immediate inhibition of ventA-recovered ATPase activity: ~ 90%
